{"source": "patent US20190038711A1", "about": "“Medicament For Treating Pulmonary Tuberculosis” (Shandong Zhonghai Pharmaceutical CO. LTD, priority 2016, published 2019)", "tested_on": "airway hyperresponsiveness", "assay": "Experiment on airway hyperresponsiveness (late-phase airway response, APTI)", "assay_type": "in vivo", "details": "sensitized mice, acetylcholine 50 μg/kg i.v.; medicament 1 g three times a day intragastric for 17 days; dexamethasone 0.5 ml/kg i.p. daily", "protocol": "According to the Above Embodiments 13-18, an Experiment on Airway Hyperresponsiveness was Conducted, with an Experimental Method and Effects being Shown Below:\n(1) mice for the experiment: the male mice for this experiment were 6 weeks old;\n(2) dose: the dose for each mouse was 3 g/day, 3 times a day;\n(3) antigen sensitization, allergy attack and treatment: 200 μg of conalbumin (CA) and 2 mg of dinitrobenzene (DNP)-bound albumin were dissolved in 0.3 ml of buffer solution PBS and then […] injected into mice for sensitization twice at an interval of one week. The mice were anesthetized 7 days later after the second sensitization, and were intratracheally provided with 0.05 ml of buffer solution PBS containing 100 μg of conalbumin (CA) to induce an allergy attack. On the 20th day and the 30th day, a further allergy attack was induced by the same method at twice dose. The mice having an allergy attack were divided into 9 groups 24 hours later after the first allergy attack. […]\n(4) measurement of late-phase airway response: on the third day after the last allergy attack, the mice of the above 8 groups were intravenously injected with acetylcholine, and then the airway pressure changes of these mice and those of group 9 were all measured to reflect airway responses. […]"}
{"compound": "C[C@@H]1C[C@H]2[C@@H]3CCC4=CC(=O)C=C[C@]4(C)[C@@]3(F)[C@@H](O)C[C@]2(C)[C@@]1(O)C(=O)CO", "note": "[dexamethasone]", "values": [{"measurement": "APTI (airway pressure-time index)", "result": "565 ± 31 centimeter water column per second"}]}
